From US8436006B2, “2-amino-quinazoline derivatives useful as inhibitors of β-secretase (BACE)” (Jansssen Pharmaceutica N.V., priority 2004, dated 2013)

How the values were obtained:
[1] = target: T1, β-secretase (BACE) (Homo sapiens, UniProt P56817); assay: BACE % Inhibition Assay (Example 161), (Aedens)-[…]-(Dabcyl K-amide) substrate; format: biochemical; conditions: % error ±10%
T1 construct: purchased Panvera
Procedure: The following reagents were used in this assay: sodium acetate, PEG8000 (Sigma), DMSO, HEPES, (Aedens)-[…]-(Dabcyl K-amide) substrate, β-secretase (BACE) (Panvera), and 96-well plate (HE microplate, Molecular Devices).
The substrate stock solution was prepared in DMSO as a 10 mg/mL solution. The substrate working solution was prepared by diluting the 10 mg/mL stock solution with substrate assay buffer to a final concentration of 300 μg/mL. The β-secretase (BACE) working solution was prepared by diluting a 0.83 mg/mL BACE stock solution with enzyme assay buffer to a final concentration of 4 μg/mL.
Test compounds were dissolved in DMSO to 10 mM.
The screening procedure for this assay was as follows: 15 μL of BACE working solution was pipetted into each well of a 96-well plate. To each well was then pipetted 2 μL of test compound at the selected concentration. Test compound and BACE were then mixed with a pipettor and incubated for 20 min at room temperature. To each well was then added 10 μL of the substrate working solution. The plates were then incubated for 1 hour at room temperature.
The procedure for the blank was as follows. 15 μL of assay buffer was pipetted into each well to be used as a blank control. To each well was then added 2 μL of vehicle and 10 μL of substrate working solution. The plates were then incubated for 1 hour at room temperature.
The procedure for the positive control was as follows: 15 μl of BACE working solution was pipetted into each well to be used as a positive control. To each well was then pipetted 2 μL of vehicle. Vehicle and BACE were then mixed with a pipettor and incubated for 20 min at room temperature. To each well was then added 10 μL of the substrate working solution. The plates were then incubated for 1 hour at room temperature.
For test compounds, % inhibition was determined at each concentration as follows: % Inhibition=[[…]][FI(positive control)−FI(negative control)]

[2] = target: T1, β-secretase (BACE); assay: BACE FS1% Inhibition Assay (Example 160); format: biochemical
Procedure: The following reagents were used in this assay: sodium acetate, PEB8000 (Sigma), DMSO, HEPES, FS1 substrate [[…]], β-secretase (BACE) (Panvera), and 96-well plate (HE microplate, Molecular Devices). […] The FS1-substrate stock solution was prepared in DMSO as a 10 mg/mL solution. The FS1-substrate working solution was prepared by diluting the 10 mg/mL stock solution with substrate assay buffer to a final concentration of 300 μg/mL. The β-secretase (BACE) working solution was prepared by diluting a 0.83 mg/mL BACE stock solution with enzyme assay buffer to a final concentration of 4 μg/mL. Test compounds were dissolved in DMSO to 10 mM. […] The screening procedure for this assay was as follows: 15 μL of BACE working solution was pipetted into each well of a 96-well plate. To each well was the pipetted 2 μL of test compound at the selected concentration. Test compound and BACE were then mixed with a pipettor and incubated for 20 min at room temperature. To each well was then added 10 μL of the FS1 substrate working solution. The plates were then incubated for 1 hour at room temperature. […] The procedure for the blank was as follows. 15 μL of assay buffer was pipetted into each well to be used as a blank control. To each well was then added 2 μL of vehicle and 10 μL of FS1-substrate working solution. The plates were then incubated for 1 hour at room temperature. […] The procedure for the positive control was as follows: 15 μL of BACE working solution was pipetted into each well to be used as a positive control. To each well was then pipetted 2 μL of vehicle. Vehicle and BACE were then mixed with a pipettor and incubated for 20 min at room temperature. To each well was then added 10 μL of the FS1 substrate working solution. The plates were then incubated for 1 hour at room temperature. […] For test compounds, % inhibition was determined at each concentration as follows: [formula]

T1 sequence (P56817 46-501): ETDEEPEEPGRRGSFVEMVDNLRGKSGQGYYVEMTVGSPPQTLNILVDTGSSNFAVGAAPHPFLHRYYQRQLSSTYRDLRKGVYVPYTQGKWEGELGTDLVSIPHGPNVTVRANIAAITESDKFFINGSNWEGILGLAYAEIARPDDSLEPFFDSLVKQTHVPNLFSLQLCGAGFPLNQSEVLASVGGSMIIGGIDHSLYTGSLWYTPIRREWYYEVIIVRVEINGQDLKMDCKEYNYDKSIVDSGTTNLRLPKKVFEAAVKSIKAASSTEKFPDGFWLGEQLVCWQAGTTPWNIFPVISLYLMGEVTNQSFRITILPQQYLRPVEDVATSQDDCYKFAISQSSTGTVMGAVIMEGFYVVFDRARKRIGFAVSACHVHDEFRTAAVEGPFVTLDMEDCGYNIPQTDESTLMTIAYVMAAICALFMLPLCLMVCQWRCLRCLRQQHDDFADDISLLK

SMILES | % Inhibition (FS) ([2]; 0.3 μM test compound) [%] | % Inhibition (FS) ([2]; 1 μM test compound) [%] | % Inhibition (FS) ([2]; 3 μM test compound) [%] | other results
NC1=Nc2ccc(Oc3ccccc3)cc2CN1C(CNC(=O)CCC1CCCC1)C1CCCCC1 (stereo not shown) [Compound 366] |  |  |  | % Inhibition ([1]; 0.3 μM test compound): 64%
NC1=Nc2ccc(Oc3ccccc3)cc2CN1C(CCNC(=O)C1CCCCC1)C1CCCCC1 (stereo not shown) [Compound 391] |  |  |  | % Inhibition ([1]; 0.3 μM test compound): 35%; % Inhibition ([1]; 1 μM test compound): 93%; % Inhibition ([1]; 3 μM test compound): 115%
CC(C)CC(=O)NCC(C1CCCCC1)N1Cc2cc(Oc3ccccc3)ccc2N=C1N (stereo not shown) [Compound 389] |  |  |  | % Inhibition ([1]; 0.3 μM test compound): 85%; % Inhibition ([1]; 1 μM test compound): 112%; % Inhibition ([1]; 3 μM test compound): 120%
NC1=Nc2ccc(Oc3ccccc3)cc2CN1C(CCNC(=O)C1CCCC1)C1CCCCC1 (stereo not shown) [Compound 392] |  |  |  | % Inhibition ([1]; 0.3 μM test compound): 75%; % Inhibition ([1]; 3 μM test compound): 120%
NC1=Nc2ccc(Oc3ccccc3)cc2CN1Cc1cccc(C(=O)N(C2CCCCC2)C2CCCCC2)c1 [Compound 98] | 49 | 93 | 114 | % Inhibition ([1]; 3 μM test compound): 76%; % Inhibition ([1]; 10 μM test compound): 99%
CCCC(CNC(=O)C1CCCCC1)N1Cc2cc(Oc3ccccc3)ccc2N=C1N (stereo not shown) [Compound 343] |  |  |  | % Inhibition ([1]; 0.3 μM test compound): 81%
NC1=Nc2ccc(-c3ccccc3Cl)cc2CN1CCNC(=O)C1CCC(C(F)(F)F)CC1 (stereo not shown) [Compound 690] | <30 | <30 | 52 | 
NC1=Nc2ccc(-c3ccc4ccccc4c3)cc2CN1CCNC(=O)C1CCC1 [Compound 663] | <30 | <30 | <30 | 
CC(C)C(CNC(=O)C12CC3CC(CC(C3)C1)C2)N1Cc2cc(Oc3ccccc3)ccc2N=C1N (stereo not shown) [Compound 562] | 106 | 118 | 128 | 
COC1CCCC(C(=O)NCCN2Cc3cc(C4=CCCC4)ccc3N=C2N)C1 (stereo not shown) [Compound 706] | <30 | <30 | <30 | 
CC(=O)N1CCC(C(=O)NCCN2Cc3cc(C4=CCCCC4)ccc3N=C2N)CC1 [Compound 705] | <30 | <30 | <30 | 
CCCCC(CC)C(=O)NCCN1Cc2cc(-c3ccccc3C)ccc2N=C1N (stereo not shown) [Compound 662] | 66 | 97 |  | 
COC(=O)[C@H](COCc1ccccc1)N(C)C(=O)CC[C@@H](C1CCOCC1)N1Cc2cc(Oc3ccccc3)ccc2N=C1N [Compound 786] | 97 |  |  | 
CNC(=O)C1CCC(N(C)C(=O)CCC(C2CCCCC2)N2Cc3cc(Oc4ccccc4)ccc3N=C2N)CC1 (stereo not shown) [Compound 765] | <30 | 56 | 97 | 
NC1=Nc2ccc(Oc3ccccc3)cc2CN1C(CNC(=O)C1CCCCC1)c1ccccc1 (stereo not shown) [Compound 342] |  |  |  | % Inhibition ([1]; 0.3 μM test compound): 50%; % Inhibition ([1]; 1 μM test compound): 93%
CCCC(=O)NCCN1Cc2cc(-c3ccc4ccccc4c3)ccc2N=C1N [Compound 666] | 37 | <30 | <30 | 
COc1ccccc1-c1ccc2c(c1)CN(CCNC(=O)C1CCOCC1)C(N)=N2 [Compound 697] | <30 | <30 | 63 | 
CCCC(CNC(=O)OC(C)(C)C)N1Cc2cc(Oc3ccccc3)ccc2N=C1N (stereo not shown) [Compound 318] |  |  |  | % Inhibition ([1]; 0.3 μM test compound): 32%; % Inhibition ([1]; 1 μM test compound): 70%; % Inhibition ([1]; 3 μM test compound): 103%
CN(C(=O)CCC(C1CCCCC1)N1Cc2cc(Oc3ccccc3)ccc2N=C1N)c1ccc(C(=O)O)cc1 (stereo not shown) [Compound 766] | <30 | <30 | <30 | 
CN(Cc1cc(-c2ccccc2)on1)C(=O)CC[C@@H](C1CCCCC1)N1Cc2cc(-c3ccccc3F)ccc2N=C1N [Compound 724] | 38 | <30 | 65 | 
CC(C)(C)C(=O)NCCN1Cc2cc(-c3cnc4ccccc4c3)ccc2N=C1N [Compound 674] | 36 | <30 | 41 | 
NC1=Nc2ccc(-c3ccccc3F)cc2CN1CCNC(=O)C1CCOCC1 [Compound 687] | <30 | 50 | 87 | 
COC1CCCC(C(=O)NCCN2Cc3cc(-c4ccccc4)ccc3N=C2N)C1 (stereo not shown) [Compound 703] | <30 | 46 | 83 | 
NC1=Nc2ccc(-c3cnc4ccccc4c3)cc2CN1CCNC(=O)C12CC3CC(CC(C3)C1)C2 [Compound 672] | <30 | <30 | <30 | 
NC1=Nc2ccc(-c3ccc4ccccc4c3)cc2CN1CCNC(=O)C1CCCC1 [Compound 664] | <30 | <30 | <30 | 
CCOC(=O)C1CCC(N(C)C(=O)CCC(C2CCCCC2)N2Cc3cc(Oc4ccccc4)ccc3N=C2N)CC1 (stereo not shown) [Compound 737] |  |  |  | % Inhibition (FS) ([2]; 0.3 μM test compound, 0.3 µM): 22%; % Inhibition (FS) ([2]; 1 μM test compound, 1 µM): 34%; % Inhibition (FS) ([2]; 3 μM test compound, 3 µM): 97%
COc1ccccc1-c1ccc2c(c1)CN([C@@H](CCC(=O)N(C)Cc1csc(-c3ccccc3)n1)C1CCCCC1)C(N)=N2 [Compound 716] | <30 | <30 | 72 | 
CN(C(=O)CCC(C1CCCCC1)N1Cc2cc(Oc3ccccc3)ccc2N=C1N)C1CCC(C#N)CC1 (stereo not shown) [Compound 769] | <30 | 61 |  | 
CN(C(=O)CCC(C)(C)N1Cc2cc(Oc3ccccc3)ccc2N=C1N)C1CCCCC1 [Compound 738] | 14 | 28 | 61 | 
CC(C)CCC(=O)NCCN1Cc2cc(-c3cnc4ccccc4c3)ccc2N=C1N [Compound 675] | 35 | <30 | <30 | 
